From patent US4075336A, “Thiazines and method” (Kanto Ishiseiyaku Co., Ltd., priority 1976, dated 1978)

Assays:
Wister-strain rats = assay: Anti-inflammatory effect, carrageenan-induced edema; format: in vivo; conditions: for inhibitory percent: vs control
Description: (Carrageenen-induced edema)
Wister-strain rats (each group consisting of 5 animals) were subcutaneously given 0.1 ml of a 1% carrageenan suspension on their right paws. The volumes of the right paws were measured prior to the administration, and thereafter were measured with elapsed time. The inhibitory percent was calculated, in comparison with a control, on the basis of the volume of edema induced. The volume was estimated with reference to the volume before the carrageenan-injection. The test compounds were orally administered 1 hour before the carrageenan-injection. The same experiments were repeated twice. The mean values of the results in all 10 animals were compared with those of methiazinic acid.

rats = assay: Analgesic effect, Randall-Selitto method (pain threshold, carrageenan-inflamed paw); format: in vivo
Description: Using an analgesic effect measuring apparatus (made by Ugo Basile Co., Ltd.), pain thresholds in rats were measured as a function of elapsed time and compared with normal pain threshold values which had previously been determined. Each group consisted of 5 animals, which were subcutaneously given 0.1 ml of a 1% carrageenan suspension on their right paws. The test compounds were given orally, 1 hour before the carrageenan medication. The experiments were repeated twice under the same conditions. The mean values of the results obtained for 10 animals were compared with those of methiazinic acid.
The results obtained are shown in Table 1, wherein "OS" refers to oral administration.

[1] = Acute toxicity, intraperitoneal (LD50, deaths); format: in vivo; conditions: mouse, in vivo, ip; intraperitoneal, dd strain mice, males and females
Description: (§1) Animals [dd strain mice; 5 groups of males and 5 groups of females, each group consisting of 8 animals] were intraperitoneally given the compound of this invention in doses of 2000, 2400, 2880, 3456 and 5000 mg/kg. […] Based on this finding, it may be concluded that the value of LD50 is at least more than 5000 mg/kg.

dd strain mice [2] = assay: Acute toxicity, intraperitoneal (LD50, deaths); format: in vivo
Description: as §1

dd strain mice [3] = conditions: methiazinic acid; source of value not given; cited from earlier work
[4] = 50 mg/kg per os, inflammated paw
[5] = 100 mg/kg per os, inflammated paw

`COc1ccc(C2NC(=O)c3ccccc3S2)cc1O` (centres unmarked) [Compound of this invention, 4-oxo-2-(3-hydroxy-4-methoxyphenyl)-2,3-dihydro-5,6-benzo-1,3-thiazine] gave an edema percent (Wister-strain rats; 50 mg/kg per os, 1 hr.) of 29.3%, an inhibitory percent (Wister-strain rats; 50 mg/kg per os, 1 hr.) of 39.2% and an edema percent (Wister-strain rats; 50 mg/kg per os, 2 hrs.) of 43.1%. For the same compound, the inhibitory percent (Wister-strain rats; 50 mg/kg per os, 2 hrs.) was 32.6%, the edema percent (Wister-strain rats; 50 mg/kg per os, 3 hrs.) was 43.1% and the inhibitory percent (Wister-strain rats; 50 mg/kg per os, 3 hrs.) was 37.3%. The edema percent (Wister-strain rats; 50 mg/kg per os, 4 hrs.) was 42.4%, the inhibitory percent (Wister-strain rats; 50 mg/kg per os, 4 hrs.) was 32.1% and the edema percent (Wister-strain rats; 50 mg/kg per os, 5 hrs.) was 37.4%. It also gave an inhibitory percent (Wister-strain rats; 50 mg/kg per os, 5 hrs.) of 36.4%, an edema percent (Wister-strain rats; 100 mg/kg per os, 1 hr.) of 24.1% and an inhibitory percent (Wister-strain rats; 100 mg/kg per os, 1 hr.) of 42.1%. For the same compound, the edema percent (Wister-strain rats; 100 mg/kg per os, 2 hrs.) was 31.5%, the inhibitory percent (Wister-strain rats; 100 mg/kg per os, 2 hrs.) was 49.9% and the edema percent (Wister-strain rats; 100 mg/kg per os, 3 hrs.) was 34.6%. It also gave an inhibitory percent (Wister-strain rats; 100 mg/kg per os, 3 hrs.) of 50.4%, an edema percent (Wister-strain rats; 100 mg/kg per os, 4 hrs.) of 33.9% and an inhibitory percent (Wister-strain rats; 100 mg/kg per os, 4 hrs.) of 47.5%. For the same compound, the edema percent (Wister-strain rats; 100 mg/kg per os, 5 hrs.) was 35.5%, the inhibitory percent (Wister-strain rats; 100 mg/kg per os, 5 hrs.) was 39.1% and the “anti-inflammatory effect compared with methiazinic acid (in words)” value (Wister-strain rats; 50 and 100 mg/kg per os) was “very similar to that of methiazinic acid”. For the same compound, the “duration of anti-inflammatory effect (in words)” value (Wister-strain rats; 50 and 100 mg/kg per os) was “long duration effect, which was observed even after 5 hours”, the “anti-inflammatory effect 1 hour after administration (in words)” value (Wister-strain rats; 50 and 100 mg/kg per os, 1 hour) was “significant effect 1 hour after administration” and the Analgesic coefficient (rats; [4]) was 0.73. For the same compound, the “Pain threshold after 30 min.” value (rats; [4]) was 62.5 mm Hg, the “Pain threshold after 60 min.” value (rats; [4]) was 57.7 mm Hg and the “Pain threshold after 90 min.” value (rats; [4]) was 48.0 mm Hg. For the same compound, the “Pain threshold after 120 min.” value (rats; [4]) was 41.8 mm Hg, the “Pain threshold after 180 min.” value (rats; [4]) was 36.8 mm Hg and the “Pain threshold after 240 min.” value (rats; [4]) was 44.2 mm Hg. For the same compound, the “Pain threshold, before medication” value (rats; [4]) was 66.8 mm Hg, the Analgesic coefficient (rats; 50 mg/kg per os, normal paw) was 0.93 and the “Pain threshold after 30 min.” value (rats; 50 mg/kg per os, normal paw) was 66.7 mm Hg. For the same compound, the “Pain threshold after 60 min.” value (rats; 50 mg/kg per os, normal paw) was 66.0 mm Hg, the “Pain threshold after 90 min.” value (rats; 50 mg/kg per os, normal paw) was 64.0 mm Hg and the “Pain threshold after 120 min.” value (rats; 50 mg/kg per os, normal paw) was 61.7 mm Hg. The “Pain threshold after 180 min.” value (rats; 50 mg/kg per os, normal paw) was 57.3 mm Hg, the “Pain threshold after 240 min.” value (rats; 50 mg/kg per os, normal paw) was 60.8 mm Hg and the “Pain threshold, before medication” value (rats; 50 mg/kg per os, normal paw) was 67.3 mm Hg. The Analgesic coefficient (rats; [5]) was 0.82, the “Pain threshold after 30 min.” value (rats; [5]) was 66.7 mm Hg and the “Pain threshold after 60 min.” value (rats; [5]) was 63.7 mm Hg. The “Pain threshold after 90 min.” value (rats; [5]) was 57.2 mm Hg, the “Pain threshold after 120 min.” value (rats; [5]) was 49.0 mm Hg and the “Pain threshold after 180 min.” value (rats; [5]) was 43.3 mm Hg. For the same compound, the “Pain threshold after 240 min.” value (rats; [5]) was 43.2 mm Hg, the “Pain threshold, before medication” value (rats; [5]) was 65.6 mm Hg and the Analgesic coefficient (rats; 100 mg/kg per os, normal paw) was 0.96. For the same compound, the “Pain threshold after 30 min.” value (rats; 100 mg/kg per os, normal paw) was 65.0 mm Hg, the “Pain threshold after 60 min.” value (rats; 100 mg/kg per os, normal paw) was 65.7 mm Hg and the “Pain threshold after 90 min.” value (rats; 100 mg/kg per os, normal paw) was 65.2 mm Hg. For the same compound, the “Pain threshold after 120 min.” value (rats; 100 mg/kg per os, normal paw) was 62.5 mm Hg, the “Pain threshold after 180 min.” value (rats; 100 mg/kg per os, normal paw) was 61.0 mm Hg and the “Pain threshold after 240 min.” value (rats; 100 mg/kg per os, normal paw) was 61.2 mm Hg. For the same compound, the “Pain threshold, before medication” value (rats; 100 mg/kg per os, normal paw) was 66.0 mm Hg, the “analgesic effect (in words)” value (rats; 50 and 100 mg/kg, oral) was “clearly exerts analgesic effects” and the “duration and strength of analgesic effect compared with methiazinic acid (in words)” value (rats; 50 and 100 mg/kg, oral) was “about the same duration and strength of effect as methiazinic acid”. For the same compound, the LD50 [1] was greater than 5000 mg/kg, the “toxicity relative to that of methiazinic acid” value (dd strain mice [2]; from LD50 values) was “less than one/tenth” and the deaths (dd strain mice [2]; intraperitoneal, 2000, 2400, 2880, 3456 and 5000 mg/kg, male and female dd strain mice) was “no deaths were observed”.
With `CN1c2ccccc2Sc2ccc(CC(=O)O)cc21` [Methiazinic acid, α-(10-methyl-2-pheno-thiazinyl)-acetic acid, reference compound] the edema percent (Wister-strain rats; 50 mg/kg per os, 1 hr.) was 38.8%, the inhibitory percent (Wister-strain rats; 50 mg/kg per os, 1 hr.) was 19.6% and the edema percent (Wister-strain rats; 50 mg/kg per os, 2 hrs.) was 47.7%. The inhibitory percent (Wister-strain rats; 50 mg/kg per os, 2 hrs.) was 25.5%, the edema percent (Wister-strain rats; 50 mg/kg per os, 3 hrs.) was 48.8% and the inhibitory percent (Wister-strain rats; 50 mg/kg per os, 3 hrs.) was 29.2%. For the same compound, the edema percent (Wister-strain rats; 50 mg/kg per os, 4 hrs.) was 46.7%, the inhibitory percent (Wister-strain rats; 50 mg/kg per os, 4 hrs.) was 25.2% and the edema percent (Wister-strain rats; 50 mg/kg per os, 5 hrs.) was 39.4%. It also gave an inhibitory percent (Wister-strain rats; 50 mg/kg per os, 5 hrs.) of 32.9%, an edema percent (Wister-strain rats; 100 mg/kg per os, 1 hr.) of 34.2% and an inhibitory percent (Wister-strain rats; 100 mg/kg per os, 1 hr.) of 17.7%. For the same compound, the edema percent (Wister-strain rats; 100 mg/kg per os, 2 hrs.) was 38.1%, the inhibitory percent (Wister-strain rats; 100 mg/kg per os, 2 hrs.) was 39.3% and the edema percent (Wister-strain rats; 100 mg/kg per os, 3 hrs.) was 40.1%. The inhibitory percent (Wister-strain rats; 100 mg/kg per os, 3 hrs.) was 42.4%, the edema percent (Wister-strain rats; 100 mg/kg per os, 4 hrs.) was 39.7% and the inhibitory percent (Wister-strain rats; 100 mg/kg per os, 4 hrs.) was 38.5%. It also gave an edema percent (Wister-strain rats; 100 mg/kg per os, 5 hrs.) of 36.0%, an inhibitory percent (Wister-strain rats; 100 mg/kg per os, 5 hrs.) of 38.3% and an Analgesic coefficient (rats; [4]) of 0.74. For the same compound, the “Pain threshold after 30 min.” value (rats; [4]) was 62.7 mm Hg, the “Pain threshold after 60 min.” value (rats; [4]) was 57.7 mm Hg and the “Pain threshold after 90 min.” value (rats; [4]) was 48.9 mm Hg. The “Pain threshold after 120 min.” value (rats; [4]) was 43.5 mm Hg, the “Pain threshold after 180 min.” value (rats; [4]) was 39.0 mm Hg and the “Pain threshold after 240 min.” value (rats; [4]) was 44.5 mm Hg. The “Pain threshold, before medication” value (rats; [4]) was 66.8 mm Hg, the Analgesic coefficient (rats; 50 mg/kg per os, normal paw) was 0.94 and the “Pain threshold after 30 min.” value (rats; 50 mg/kg per os, normal paw) was 66.2 mm Hg. The “Pain threshold after 60 min.” value (rats; 50 mg/kg per os, normal paw) was 65.3 mm Hg, the “Pain threshold after 90 min.” value (rats; 50 mg/kg per os, normal paw) was 63.8 mm Hg and the “Pain threshold after 120 min.” value (rats; 50 mg/kg per os, normal paw) was 62.0 mm Hg. For the same compound, the “Pain threshold after 180 min.” value (rats; 50 mg/kg per os, normal paw) was 59.7 mm Hg, the “Pain threshold after 240 min.” value (rats; 50 mg/kg per os, normal paw) was 61.3 mm Hg and the “Pain threshold, before medication” value (rats; 50 mg/kg per os, normal paw) was 67.2 mm Hg. For the same compound, the Analgesic coefficient (rats; [5]) was 0.83, the “Pain threshold after 30 min.” value (rats; [5]) was 69.3 mm Hg and the “Pain threshold after 60 min.” value (rats; [5]) was 66.7 mm Hg. The “Pain threshold after 90 min.” value (rats; [5]) was 57.3 mm Hg, the “Pain threshold after 120 min.” value (rats; [5]) was 49.5 mm Hg and the “Pain threshold after 180 min.” value (rats; [5]) was 47.2 mm Hg. The “Pain threshold after 240 min.” value (rats; [5]) was 47.2 mm Hg, the “Pain threshold, before medication” value (rats; [5]) was 67.7 mm Hg and the Analgesic coefficient (rats; 100 mg/kg per os, normal paw) was 0.98. For the same compound, the “Pain threshold after 30 min.” value (rats; 100 mg/kg per os, normal paw) was 69.0 mm Hg, the “Pain threshold after 60 min.” value (rats; 100 mg/kg per os, normal paw) was 66.7 mm Hg and the “Pain threshold after 90 min.” value (rats; 100 mg/kg per os, normal paw) was 65.5 mm Hg. For the same compound, the “Pain threshold after 120 min.” value (rats; 100 mg/kg per os, normal paw) was 64.8 mm Hg, the “Pain threshold after 180 min.” value (rats; 100 mg/kg per os, normal paw) was 62.8 mm Hg and the “Pain threshold after 240 min.” value (rats; 100 mg/kg per os, normal paw) was 64.0 mm Hg. The “Pain threshold, before medication” value (rats; 100 mg/kg per os, normal paw) was 66.9 mm Hg and the LD50 (dd strain mice [3]) was “about 500 mg/kg”.
